The results in this text go back to patent US8986758B2, “Method for extracting a traditional herbal medicine component using a polished-rice steaming method” (Amorepacific Corporation, priority 2009, dated 2015).

In data set [1] the test system is C57BL/6 mouse-derived pigment cells (Mel-Ab cells). Nature of the data set: Effect of inhibiting melanin production using mouse pigment cells (Dooley's method). The data set is classed as cell-based. The note with it: 72 h, each sample at 10 ppm, Mel-Ab cells cultured 3 days, absorbance at 400 nm. Here is the method: C57BL/6 mouse-derived pigment cells (Mel-Ab cells) (Dooley, T. P. et al., Skin pharmacol, 7, pp. 188-200) are cultured in a DMEM ([…]), to which 10% fetal bovine serum, 100 nM 12-O-tetradecanoylphorbol-13-acetate and 1 nM cholera toxin are added, at 37° C. under 5% CO2. The cultured Mel-Ab cells are released by using 0.25% trypsin-EDTA and incubated on a 24-well plate at a concentration of 10^5 cells/well. From the next day, each test sample is added to culture the cells continuously for 3 days.
The test samples used herein include hydroquinone, the extract of traditional herbal medicine of Comparative Example 1 and the extract of traditional herbal medicine obtained by polished-rice steaming method according to Example 1. Each sample is used at a concentration of 10 ppm. Hydroquinone is used as a positive control. Then, the culture medium is removed and the cells are washed with phosphate buffered saline (PBS). The cells are subjected to cell lysis using 1N sodium hydroxide and absorbance is determined at 400 nm. The absorbance measurement is used to calculate % inhibition of melanin production according to the following Mathematical Formula 1. The results are shown in the following Table 1 (Dooley's method). % Inhibition of melanin production=100−{(absorbance of each sample/absorbance of control)×100} [Mathematical Formula 1]

The next data set concerns skin. As to the kind of experiment: Irritation test on panels sensitive to irritation. The data set is classed as in vivo. The source says: Particularly, 15 panels sensitive to irritation, such as stinging, burning, etc., are subjected to a test for determining irritation feeling, including stinging, itch and dazzling. […] The results are shown in the following Table 2. <Evaluation Criteria> 0-0.4: No irritation 0.5-1.0: slight irritation 1.1-2.0: mild irritation 2.1-3.0: severe irritation

Setting [2] is: grade 0 to 3.0, 0.5 mL applied onto skin, 15 panels, 0-0.4 no, 0.5-1.0 slight, 1.1-2.0 mild, 2.1-3.0 severe irritation.

Molecules are shown by their SMILES.

The term inhibition denotes the relative decrease from the control value, in per cent. Low values mean a response near the control, high ones a response far below the control.

Regarding `Oc1ccc(O)cc1` [Hydroquinone, hydroquinone], in data set [1], at 10 ppm the inhibition was 58.9%.

For `O=c1cc(CO)occ1O` [Kojic acid, kojic acid], in the data set on skin (average of stinging and burning grades, grade 0 to 3.0, 0-0.4 no, 0.5-1.0 slight irritation), the Average was 0.68. Moreover, in the data set with skin (setting [2]), the Burning is reported as 0.50 and the Stinging came to 0.85. In the data set on skin (summary of Table 2, 0.5 mL applied onto skin), the “irritation (in words)” value is recorded as “perceptible degree of irritation”.
